# Tested on: MV-4-11 cells
# Assay: Gene expression microarray analysis (Affymetrix PrimeView) and GSEA
# Format: cell-based, human
# Parameters: RFU PODN (11730768_x_at) / Fold change /veh PODN (11730768_x_at) / RFU LINC00158 (11744669_a_at) / Fold change /veh LINC00158 (11744669_a_at) / RFU DUSP10 (11751237_a_at) / Fold change /veh DUSP10 (11751237_a_at) / RFU ID3 (11757404_x_at) / Fold change /veh ID3 (11757404_x_at) / RFU PLEKHG5 (11737974_s_at) / Fold change /veh PLEKHG5 (11737974_s_at) / RFU LRRC4B (11730491_at) / Fold change /veh LRRC4B (11730491_at) / RFU GIMAP4 (11747438_a_at) / Fold change /veh GIMAP4 (11747438_a_at) / RFU KRT8 (11758183_x_at) / Fold change /veh KRT8 (11758183_x_at) / RFU CNN1 (11734310_a_at) / Fold change /veh CNN1 (11734310_a_at) / RFU VPS37D (11726825_at) / Fold change /veh VPS37D (11726825_at) / RFU C10orf10 (11716522_x_at) / Fold change /veh C10orf10 (11716522_x_at) / RFU KIR2DL2 /// KIR2DL4 /// KIR2DL5A /// KIR2DL5B /// KIR2DS1 /// KIR2DS2 /// KIR2DS3 /// KIR2DS4 /// KIR3DL3 /// KIR3DL3 /// KIR3DS1 (11738374_at) / Fold change /veh KIR2DL2 /// KIR2DL4 /// KIR2DL5A /// KIR2DL5B /// KIR2DS1 /// KIR2DS2 /// KIR2DS3 /// KIR2DS4 /// KIR3DL3 /// KIR3DL3 /// KIR3DS1 (11738374_at) / RFU C1QL1 (11718748_at) / Fold change /veh C1QL1 (11718748_at) / RFU TMPRSS4 (11747572_a_at) / Fold change /veh TMPRSS4 (11747572_a_at) / RFU HAMP (11756126_x_at) / Fold change /veh HAMP (11756126_x_at) / RFU RNFT2 (11725882_a_at) / Fold change /veh RNFT2 (11725882_a_at) / RFU NR4A2 (11747474_a_at) / Fold change /veh NR4A2 (11747474_a_at) / RFU ABCC12 (11746883_a_at) / Fold change /veh ABCC12 (11746883_a_at) / RFU TMEM136 (11760407_x_at) / Fold change /veh TMEM136 (11760407_x_at) / RFU CLDN22 /// WWC2 (11732394_at) / Fold change /veh CLDN22 /// WWC2 (11732394_at) / RFU HLA-DPB1 (11760878_x_at) / Fold change /veh HLA-DPB1 (11760878_x_at) / RFU SPINT1 (11716480_a_at) / Fold change /veh SPINT1 (11716480_a_at) / RFU GAP43 (11754022_s_at) / Fold change /veh GAP43 (11754022_s_at) / RFU A4GNT (11735810_at) / Fold change /veh A4GNT (11735810_at) / RFU PRB3 (11715151_x_at) / Fold change /veh PRB3 (11715151_x_at) / RFU TUBB4B (11761932_at) / Fold change /veh TUBB4B (11761932_at) / RFU CAPN14 (11732068_a_at) / Fold change /veh CAPN14 (11732068_a_at) / RFU TMCC2 (11721928_a_at) / Fold change /veh TMCC2 (11721928_a_at) / RFU IRGQ (11745062_a_at) / Fold change /veh IRGQ (11745062_a_at) / RFU FAM174B (11720279_a_at) / Fold change /veh FAM174B (11720279_a_at) / RFU TMPRSS4 (11748680_a_at) / Fold change /veh TMPRSS4 (11748680_a_at) / RFU FAM212B (11763350_a_at) / Fold change /veh FAM212B (11763350_a_at) / RFU PLEKHG5 (11743358_a_at) / Fold change /veh PLEKHG5 (11743358_a_at) / RFU ZSCAN30 (11745921_a_at) / Fold change /veh ZSCAN30 (11745921_a_at) / RFU CMKLR1 (11741424_a_at) / Fold change /veh CMKLR1 (11741424_a_at) / RFU LOC101060620 /// MAPK8IP1 (11723275_at) / Fold change /veh LOC101060620 /// MAPK8IP1 (11723275_at) / RFU SPTSSB (11747773_x_at) / Fold change /veh SPTSSB (11747773_x_at) / RFU PRSS12 (11739890_at) / Fold change /veh PRSS12 (11739890_at) / RFU BIN1 (11741810_x_at) / Fold change /veh BIN1 (11741810_x_at) / RFU WNT11 (11732464_a_at) / Fold change /veh WNT11 (11732464_a_at) / RFU C10orf10 (11716521_a_at) / Fold change /veh C10orf10 (11716521_a_at) / RFU C5orf56 (11738089_at) / Fold change /veh C5orf56 (11738089_at) / RFU CYB561 (11721691_x_at) / Fold change /veh CYB561 (11721691_x_at) / RFU ANKRD19P (11752326_a_at) / Fold change /veh ANKRD19P (11752326_a_at) / RFU OR2T12 /// OR2T33 /// OR2T8 (11738714_s_at) / Fold change /veh OR2T12 /// OR2T33 /// OR2T8 (11738714_s_at) / RFU VCAN (11748164_a_at) / Fold change /veh VCAN (11748164_a_at) / RFU JSRP1 (11732532_at) / Fold change /veh JSRP1 (11732532_at) / RFU KRTAP10-11 (11738290_x_at) / Fold change /veh KRTAP10-11 (11738290_x_at) / RFU MYO3A (11730013_a_at) / Fold change /veh MYO3A (11730013_a_at) / RFU EBF3 (11725865_a_at) / Fold change /veh EBF3 (11725865_a_at) / RFU CAMK2N1 (11719241_x_at) / Fold change /veh CAMK2N1 (11719241_x_at) / RFU C5orf56 (11738088_a_at) / Fold change /veh C5orf56 (11738088_a_at) / RFU OLFML3 (11715873_a_at) / Fold change /veh OLFML3 (11715873_a_at) / RFU LOC100653217 /// NTM (11731650_a_at) / Fold change /veh LOC100653217 /// NTM (11731650_a_at) / RFU MAPK11 (11762145_a_at) / Fold change /veh MAPK11 (11762145_a_at) / RFU FIZ1 (11724087_x_at) / Fold change /veh FIZ1 (11724087_x_at) / RFU OASL (11726364_x_at) / Fold change /veh OASL (11726364_x_at) / RFU SOX15 (11748057_x_at) / Fold change /veh SOX15 (11748057_x_at) / RFU CD79A (11719716_a_at) / Fold change /veh CD79A (11719716_a_at) / RFU HIST1H1D (11736915_at) / Fold change /veh HIST1H1D (11736915_at) / RFU CASKIN2 (11723855_a_at) / Fold change /veh CASKIN2 (11723855_a_at) / RFU LOC730098 (11760151_x_at) / Fold change /veh LOC730098 (11760151_x_at) / RFU OR4N2 (11742367_at) / Fold change /veh OR4N2 (11742367_at) / RFU PRRT2 (11749266_a_at) / Fold change /veh PRRT2 (11749266_a_at) / RFU SNX32 (11753110_a_at) / Fold change /veh SNX32 (11753110_a_at) / RFU CDHR5 (11726645_a_at) / Fold change /veh CDHR5 (11726645_a_at) / RFU RCAN1 (11760418_a_at) / Fold change /veh RCAN1 (11760418_a_at) / RFU FAM167A (11723789_a_at) / Fold change /veh FAM167A (11723789_a_at) / RFU FAM26E (11764081_at) / Fold change /veh FAM26E (11764081_at) / RFU ISYNA1 (11749810_s_at) / Fold change /veh ISYNA1 (11749810_s_at) / RFU ACY1 (11761880_at) / Fold change /veh ACY1 (11761880_at) / RFU 11764098_at / Fold change /veh 11764098_at / RFU SAMD14 (11745864_x_at) / Fold change /veh SAMD14 (11745864_x_at) / RFU NPB (11741838_a_at) / Fold change /veh NPB (11741838_a_at) / RFU TMPRSS6 (11731388_a_at) / Fold change /veh TMPRSS6 (11731388_a_at) / RFU KRTAP10-2 (11738614_at) / Fold change /veh KRTAP10-2 (11738614_at) / RFU ARHGAP8 /// PRR5-ARHGAP8 (11727945_x_at) / Fold change /veh ARHGAP8 /// PRR5-ARHGAP8 (11727945_x_at) / RFU KRTAP5-7 /// NADSYN1 (11734609_at) / Fold change /veh KRTAP5-7 /// NADSYN1 (11734609_at) / RFU RASL12 (11751679_a_at) / Fold change /veh RASL12 (11751679_a_at) / RFU CDKN2B (11736163_a_at) / Fold change /veh CDKN2B (11736163_a_at) / RFU PRF1 (11729649_at) / Fold change /veh PRF1 (11729649_at) / RFU, ZNF638 /// ZNF638-IT1 / Fold change vs veh, ZNF638 /// ZNF638-IT1 / RFU, PANK3 / Fold change vs veh, PANK3 / RFU, SH3YL1 / Fold change vs veh, SH3YL1 / RFU, ZEB2 / Fold change vs veh, ZEB2 / RFU, NRIP1 / Fold change vs veh, NRIP1 / RFU, PTTG1IP / Fold change vs veh, PTTG1IP / RFU, CAPN2 / Fold change vs veh, CAPN2 / RFU, MED14 / Fold change vs veh, MED14 / RFU, SNORA58 / Fold change vs veh, SNORA58 / RFU, C1orf63 / Fold change vs veh, C1orf63 / RFU, LRRFIP1 / Fold change vs veh, LRRFIP1 / RFU, NDUFAF7 / Fold change vs veh, NDUFAF7 / RFU, SLC12A2 / Fold change vs veh, SLC12A2 / RFU, IBTK / Fold change vs veh, IBTK / RFU, ESF1 / Fold change vs veh, ESF1 / Fold change vs veh, TMEM50B / RFU, TAOK1 / Fold change vs veh, TAOK1 / RFU, ACBD3 / Fold change vs veh, ACBD3 / RFU, TMA16 / Fold change vs veh, TMA16 / RFU, RWDD3 / Fold change vs veh, RWDD3 / RFU, BCAT1 / Fold change vs veh, BCAT1 / RFU, EDEM3 / Fold change vs veh, EDEM3 / RFU, TMEM33 / Fold change vs veh, TMEM33 / RFU, WDR75 / Fold change vs veh, WDR75 / RFU, AHCTF1 / Fold change vs veh, AHCTF1 / RFU, TFRC / Fold change vs veh, TFRC / RFU, ZDHHC17 / Fold change vs veh, ZDHHC17 / RFU, NOM1 / Fold change vs veh, NOM1 / RFU, ARL8B / Fold change vs veh, ARL8B / RFU, ZBTB11 / Fold change vs veh, ZBTB11 / RFU, TAMM41 / Fold change vs veh, TAMM41 / RFU, KIAA1704 /// LOC100996395 / Fold change vs veh, KIAA1704 /// LOC100996395 / RFU, ING1 / Fold change vs veh, ING1 / RFU, TRMT61B / Fold change vs veh, TRMT61B / RFU, FUBP3 / Fold change vs veh, FUBP3 / RFU, TP53 / Fold change vs veh, TP53 / RFU, TNKS2 / Fold change vs veh, TNKS2 / RFU, ZFP14 / Fold change vs veh, ZFP14 / RFU, ACTR2 / Fold change vs veh, ACTR2 / RFU, PPP3R1 / Fold change vs veh, PPP3R1 / RFU, PIK3R1 / Fold change vs veh, PIK3R1 / RFU, HNRNPA1 / Fold change vs veh, HNRNPA1 / RFU, RNF170 / Fold change vs veh, RNF170 / RFU, ZNF28 / Fold change vs veh, ZNF28 / RFU, RNGTT / Fold change vs veh, RNGTT / RFU, OGT / Fold change vs veh, OGT / RFU, BRD1 / Fold change vs veh, BRD1 / RFU, MARS / Fold change vs veh, MARS / RFU, ZNF655 / Fold change vs veh, ZNF655 / RFU, FAHD1 / Fold change vs veh, FAHD1 / RFU, BDP1 / Fold change vs veh, BDP1 / RFU, LRRCC1 / Fold change vs veh, LRRCC1 / RFU, ARID1A / Fold change vs veh, ARID1A / RFU, ZNF146 / Fold change vs veh, ZNF146 / RFU, ZNF330 / Fold change vs veh, ZNF330 / RFU, GPN3 / Fold change vs veh, GPN3 / RFU, C9orf123 / Fold change vs veh, C9orf123 / RFU, N4BP2L2 / Fold change vs veh, N4BP2L2 / RFU, ARFIP1 / Fold change vs veh, ARFIP1 / RFU, FAM179B / Fold change vs veh, FAM179B / RFU, BCL10 / Fold change vs veh, BCL10 / RFU, UHRF1BP1L / Fold change vs veh, UHRF1BP1L / RFU, BET1 / Fold change vs veh, BET1 / RFU, CNOT2 / Fold change vs veh, CNOT2 / RFU, ZNF268 / Fold change vs veh, ZNF268 / Fold change vs veh, ZNF507 / RFU, DGCR2 / Fold change vs veh, DGCR2 / RFU, WDSUB1 / Fold change vs veh, WDSUB1 / Fold change vs veh, HSP90B1 /// MIR3652 / RFU, ADSS / Fold change vs veh, ADSS / RFU, GK / Fold change vs veh, GK / RFU, ZNF148 / Fold change vs veh, ZNF148 / RFU, TAF9 / Fold change vs veh, TAF9 / RFU, SLC1A5 / Fold change vs veh, SLC1A5 / RFU, SLMO2 / Fold change vs veh, SLMO2 / RFU, ABCC4 / Fold change vs veh, ABCC4 / RFU, LOC101060439 /// RAP1B / Fold change vs veh, LOC101060439 /// RAP1B / RFU, RFX7 / Fold change vs veh, RFX7 / RFU, GTPBP10 / Fold change vs veh, GTPBP10 / RFU, CNEP1R1 / Fold change vs veh, CNEP1R1 / RFU, BIVM-ERCC5 /// ERCC5 / Fold change vs veh, BIVM-ERCC5 /// ERCC5 / RFU, ILF3 / Fold change vs veh, ILF3 / RFU 11762660_at / Fold change /veh 11762660_at / RFU VCAN (11757783_s_at) / Fold change /veh VCAN (11757783_s_at) / RFU DDX43 (11728927_at) / Fold change /veh DDX43 (11728927_at) / RFU KRT8 (11758188_x_at) / Fold change /veh KRT8 (11758188_x_at) / RFU NKD1 (11759106_at) / Fold change /veh NKD1 (11759106_at) / RFU SRD5A1 (11742802_a_at) / Fold change /veh SRD5A1 (11742802_a_at) / RFU TPSAB1 /// TPSB2 (11721975_s_at) / Fold change /veh TPSAB1 /// TPSB2 (11721975_s_at) / RFU GSTM3 (11746129_a_at) / Fold change /veh GSTM3 (11746129_a_at) / RFU IL23R (11737362_x_at) / Fold change /veh IL23R (11737362_x_at) / RFU TMEM51 (11727254_a_at) / Fold change /veh TMEM51 (11727254_a_at) / RFU PIWIL2 (11732686_x_at) / Fold change /veh PIWIL2 (11732686_x_at) / RFU ORM1 (11744905_x_at) / Fold change /veh ORM1 (11744905_x_at) / RFU CCDC152 (11743942_at) / Fold change /veh CCDC152 (11743942_at) / RFU ECM1 (11717891_a_at) / Fold change /veh ECM1 (11717891_a_at) / RFU IL23R (11748794_a_at) / Fold change /veh IL23R (11748794_a_at) / RFU TNFAIP8L3 (11732012_x_at) / Fold change /veh TNFAIP8L3 (11732012_x_at) / RFU MBOAT4 (11741988_at) / Fold change /veh MBOAT4 (11741988_at) / RFU 11764193_at / Fold change /veh 11764193_at / RFU TMEM53 (11763286_at) / Fold change /veh TMEM53 (11763286_at) / RFU MAGEB2 (11727129_at) / Fold change /veh MAGEB2 (11727129_at) / RFU TMEM200A (11744735_a_at) / Fold change /veh TMEM200A (11744735_a_at) / RFU CCDC152 (11751479_a_at) / Fold change /veh CCDC152 (11751479_a_at) / RFU FAM211A (11726209_a_at) / Fold change /veh FAM211A (11726209_a_at) / RFU RGS16 (11746705_a_at) / Fold change /veh RGS16 (11746705_a_at) / RFU VCAN (11755009_s_at) / Fold change /veh VCAN (11755009_s_at) / RFU RHOB (11743442_s_at) / Fold change /veh RHOB (11743442_s_at) / RFU RGS16 (11720943_a_at) / Fold change /veh RGS16 (11720943_a_at) / RFU RGS16 (11720944_at) / Fold change /veh RGS16 (11720944_at) / RFU, VPS4B / Fold change vs veh, VPS4B / RFU, CREB1 / Fold change vs veh, CREB1 / RFU, DNAJC13 / Fold change vs veh, DNAJC13 / RFU, GNAQ / Fold change vs veh, GNAQ / RFU, CDK5R1 / Fold change vs veh, CDK5R1 / RFU, ZRANB3 / Fold change vs veh, ZRANB3 / RFU, CUL4A / Fold change vs veh, CUL4A / RFU, CCNY / Fold change vs veh, CCNY / RFU, UFL1 / Fold change vs veh, UFL1 / RFU, COG3 / Fold change vs veh, COG3 / RFU, DIAPH2 / Fold change vs veh, DIAPH2 / RFU, SKA2 / Fold change vs veh, SKA2 / RFU, AFF3 / Fold change vs veh, AFF3 / RFU, LMF1 / Fold change vs veh, LMF1 / RFU, IPO11 / Fold change vs veh, IPO11 / RFU, DFFB / Fold change vs veh, DFFB / RFU, FOXP1 / Fold change vs veh, FOXP1 / RFU, CARD8 / Fold change vs veh, CARD8 / RFU, STRN3 / Fold change vs veh, STRN3 / RFU, ADK / Fold change vs veh, ADK / RFU, RASSF2 / Fold change vs veh, RASSF2 / RFU, WIPF1 / Fold change vs veh, WIPF1 / RFU, LARP1B / Fold change vs veh, LARP1B / RFU, RASA1 / Fold change vs veh, RASA1 / RFU, RB1 / Fold change vs veh, RB1 / RFU, PPFIA1 / Fold change vs veh, PPFIA1 / RFU, MAT2A / Fold change vs veh, MAT2A / RFU, CCT5 / Fold change vs veh, CCT5 / RFU, WDR92 / Fold change vs veh, WDR92 / RFU, CUX1 / Fold change vs veh, CUX1 / RFU, TTC7A / Fold change vs veh, TTC7A / RFU, TMEM135 / Fold change vs veh, TMEM135 / RFU, DEPTOR / Fold change vs veh, DEPTOR / RFU, CPM / Fold change vs veh, CPM / RFU, DNAJB6 / Fold change vs veh, DNAJB6 / RFU, CACNA2D3 / Fold change vs veh, CACNA2D3 / RFU, DTX4 / Fold change vs veh, DTX4 / RFU, TFCP2 / Fold change vs veh, TFCP2 / RFU, GMCL1 /// GMCL1P1 / Fold change vs veh, GMCL1 /// GMCL1P1 / RFU, AEBP2 / Fold change vs veh, AEBP2 / RFU, SNHG1 /// SNORD22 /// SNORD25 /// SNORD26 /// SNORD27 /// SNORD28 /// SNORD29 /// SNORD31 / Fold change vs veh, SNHG1 /// SNORD22 /// SNORD25 /// SNORD26 /// SNORD27 /// SNORD28 /// SNORD29 /// SNORD31 / Fold change (Aza/veh), C12orf56 (ProbeSet 11735607_a_at) / Fold change (ACY-1035/veh), C12orf56 (ProbeSet 11735607_a_at) / Fold change (Aza/veh), FGFR1OP (ProbeSet 11751329_s_at) / Fold change (ACY-1035/veh), FGFR1OP (ProbeSet 11751329_s_at) / Fold change (Aza/veh), VPS36 (ProbeSet 11739960_a_at) / Fold change (ACY-1035/veh), VPS36 (ProbeSet 11739960_a_at) / RFU SYPL1 (11715823_x_at) / Fold change /veh SYPL1 (11715823_x_at) / RFU IGFBP7 (11715501_s_at) / Fold change /veh IGFBP7 (11715501_s_at) / RFU REEP3 (11722064_at) / Fold change /veh REEP3 (11722064_at) / RFU IGLL1 (11728026_x_at) / Fold change /veh IGLL1 (11728026_x_at): dose or concentration left out as unconfirmed
# Conditions: MV-4-11 cells, 48 hours
compound,measurement,value
Nc1ccc(-c2cccs2)cc1NC(=O)c1ccc2c(c1)cc(C1CC1)n2CCN1CCOCC1 [ACY-1035],RFU FIZ1 (11724087_x_at),31.13 RFU

# Reference: article PMC5218480 (PLoS ONE, 2017)
